# Results reported in patent US20230278972A1, “SUBSTITUTED HALOALKYL SULFONANILIDE HERBICIDES” (FMC Corporation, priority 2020, published 2023).
# Tests used:
# Type in all cases: in vivo
# [1] = test system: Ryegrass, Italian (Italian ryegrass, Lolium multiflorum); test: Test A preemergence, Ryegrass, Italian; conditions: Preemergence; for Plant response rating, Ryegrass, Italian: 0 to 100 scale (0 no effect, 100 complete control); for Ryegrass, Italian plant response rating: visual injury on 0 to 100 scale (0 no effect, 100 complete control), approximately 10 days
# In short: (§1)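 Test chemicals, formulated in a non-phytotoxic solvent mixture with surfactant, were sprayed postemergence on plants 2 to 10 cm tall at the one- to two-leaf stage. Preemergence treatment was a directed soil spray onto freshly seeded pots. Both used a loam soil and sand blend.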
# [2] = test system: wheat (Triticum aestivum); test: Test A postemergence, wheat; conditions: Postemergence; for Wheat plant response rating: 500 g ai/ha, visual injury vs untreated controls after approx. 10 days
# In short: (§2)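 Greenhouse pot test in a loam–sand blend; compounds delivered in a non-phytotoxic solvent carrying a surfactant, applied either as a directed spray to soil at seeding or over seedlings 2 to 10 cm high with one to two leaves.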
# [3] = test system: galium (catchweed bedstraw, Galium aparine); test: Test A postemergence, galium; conditions: Postemergence; for Galium plant response rating: 500 g ai/ha, visual injury vs untreated controls after approx. 10 days
# In short: as §2
# [4] = test system: ragweed (common ragweed, Ambrosia artemisiifolia); test: Test A postemergence, ragweed; conditions: Postemergence; for Ragweed plant response rating: 500 g ai/ha, visual injury vs untreated controls after approx. 10 days
# In short: as §1
# [5] = test system: Ryegrass, Italian (Italian ryegrass, Lolium multiflorum); test: Test A postemergence, Ryegrass, Italian; conditions: Postemergence; for Ryegrass, Italian plant response rating: 500 g ai/ha, visual injury vs untreated controls after approx. 10 days
# In short: as §1
# kochia (Bassia scoparia) [6] = test: Test A preemergence, kochia; conditions: Preemergence; for Plant response rating, Kochia: 0 to 100 scale (0 no effect, 100 complete control); for Kochia plant response rating: visual injury on 0 to 100 scale (0 no effect, 100 complete control), approximately 10 days
# In short: as §1
# [7] = test system: barnyardgrass (Echinochloa crus-galli); test: Test A preemergence, barnyardgrass; conditions: Preemergence; for Plant response rating, Barnyardgrass: 0 to 100 scale (0 no effect, 100 complete control); for Barnyardgrass plant response rating: visual injury on 0 to 100 scale (0 no effect, 100 complete control), approximately 10 days
# In short: as §1
# corn (Zea mays) = test: Test A postemergence, corn; conditions: Postemergence; for Corn plant response rating: 500 g ai/ha, visual injury vs untreated controls after approx. 10 days
# In short: as §1
# [8] = test system: Foxtail, Giant (giant foxtail, Setaria faberi); test: Test A preemergence, Foxtail, Giant; conditions: Preemergence; for Plant response rating, Foxtail, Giant: 0 to 100 scale (0 no effect, 100 complete control); for Foxtail, Giant plant response rating: visual injury on 0 to 100 scale (0 no effect, 100 complete control), approximately 10 days
# In short: as §1
# [9] = test system: pigweed (Amaranthus retroflexus); test: Test A postemergence, pigweed; conditions: Postemergence; for Pigweed plant response rating: 500 g ai/ha, visual injury vs untreated controls after approx. 10 days
# In short: as §1
# [10] = test system: Foxtail, Giant (giant foxtail, Setaria faberi); test: Test A postemergence, Foxtail, Giant; conditions: Postemergence; for Foxtail, Giant plant response rating: 500 g ai/ha, visual injury vs untreated controls after approx. 10 days
# In short: as §1
# [11] = test system: blackgrass (Alopecurus myosuroides); test: Test A postemergence, blackgrass; conditions: Postemergence, 0 to 100 scale (0 no effect, 100 complete control); for Blackgrass plant response rating: 500 g ai/ha, visual injury vs untreated controls after approx. 10 days
# In short: as §1
# kochia (Bassia scoparia) [12] = test: Test A postemergence, kochia; conditions: Postemergence; for Kochia plant response rating: 500 g ai/ha, visual injury vs untreated controls after approx. 10 days
# In short: as §1
# [13] = test system: pigweed (Amaranthus retroflexus); test: Test A preemergence, pigweed; conditions: for Plant response rating, Pigweed: 0 to 100 scale (0 no effect, 100 complete control); for Pigweed plant response rating: visual injury on 0 to 100 scale (0 no effect, 100 complete control), approximately 10 days
# In short: as §2
# [14] = test system: barnyardgrass (Echinochloa crus-galli); test: Test A postemergence, barnyardgrass; conditions: Postemergence, 0 to 100 scale (0 no effect, 100 complete control); for Barnyardgrass plant response rating: 500 g ai/ha, visual injury vs untreated controls after approx. 10 days
# In short: as §2
# [15] = test system: ragweed (common ragweed, Ambrosia artemisiifolia); test: Test A preemergence, ragweed; conditions: Preemergence; for Plant response rating, Ragweed: 0 to 100 scale (0 no effect, 100 complete control); for Ragweed plant response rating: visual injury on 0 to 100 scale (0 no effect, 100 complete control), approximately 10 days
# In short: as §1
# [16] = 125 g ai/ha, visual injury, approx. 10 days
# [17] = 125 g ai/ha, 0 to 100 scale (0 no effect, 100 complete control)
# [18] = 0 to 100 scale (0 no effect, 100 complete control)
# [19] = 125 g ai/ha, visual injury approx. 10 days, 0 to 100 scale (0 no effect, 100 complete control)
# [20] = 125 g ai/ha, visual injury approx. 10 days
# [21] = 1000 g ai/ha, visual injury, 0 to 100 scale (0 no effect, 100 complete control), approx. 10 days
# [22] = 1000 g ai/ha, visual injury, approx. 10 days
# [23] = 31 g ai/ha, visual injury, approx. 10 days
# [24] = 31 g ai/ha, visual injury on 0 to 100 scale (0 no effect, 100 complete control), approx. 10 days
smiles,measurement,setting,value
CCN(CC)C(=O)c1cc(NS(=O)(=O)C(F)(F)F)c(C)cc1C [Compound 188],"Plant response rating, Ryegrass, Italian",[1]; [16],50
same,"Plant response rating, Ryegrass, Italian",[1]; 500 g ai/ha,100
same,"Plant response rating, Wheat",[2]; [17],40
same,Wheat plant response rating,[2]; [18],70
same,"Plant response rating, Galium",[3]; [17],40
same,Galium plant response rating,[3]; [18],50
same,"Plant response rating, Ragweed",[4]; [17],20
same,Ragweed plant response rating,[4]; [18],70
same,"Plant response rating, Ryegrass, Italian",[5]; [17],0
same,"Ryegrass, Italian plant response rating",[5]; [18],40
same,"Plant response rating, Kochia",kochia (Bassia scoparia) [6]; [16],20
same,"Plant response rating, Kochia",kochia (Bassia scoparia) [6]; 500 g ai/ha,60
same,"Plant response rating, Barnyardgrass",[7]; [16],60
same,"Plant response rating, Barnyardgrass",[7]; 500 g ai/ha,90
same,"Plant response rating, Corn",corn (Zea mays); [17],10
same,Corn plant response rating,corn (Zea mays); [18],30
same,"Plant response rating, Foxtail, Giant",[8]; [16],0
same,"Plant response rating, Foxtail, Giant",[8]; 500 g ai/ha,100
same,"Plant response rating, Pigweed",[9]; [17],20
same,Pigweed plant response rating,[9]; [18],80
same,"Plant response rating, Foxtail, Giant",[10]; [17],0
same,"Foxtail, Giant plant response rating",[10]; [18],20
same,"Plant response rating, Blackgrass",[11]; 125 g ai/ha,0
same,Blackgrass plant response rating,[11],0
same,"Plant response rating, Kochia",kochia (Bassia scoparia) [12]; [17],0
same,Kochia plant response rating,kochia (Bassia scoparia) [12]; [18],0
same,"Plant response rating, Pigweed",[13]; [16],50
same,"Plant response rating, Pigweed",[13]; 500 g ai/ha,90
same,"Plant response rating, Barnyardgrass",[14]; 125 g ai/ha,10
same,Barnyardgrass plant response rating,[14],70
same,"Plant response rating, Ragweed",[15]; [16],40
same,"Plant response rating, Ragweed",[15]; 500 g ai/ha,50
Cc1cc(C)c(-c2ccnn(C(C)C)c2=O)cc1NS(=O)(=O)C(F)(F)F [Compound 78],"Ryegrass, Italian plant response rating",[1]; 125 g ai/ha,100
same,"Plant response rating, Ryegrass, Italian",[1]; 500 g ai/ha,100
same,"Plant response rating, Wheat",[2]; [19],0
same,Wheat plant response rating,[2]; [18],70
same,"Plant response rating, Galium",[3]; [19],60
same,Galium plant response rating,[3]; [18],90
same,"Plant response rating, Ragweed",[4]; [19],0
same,Ragweed plant response rating,[4]; [18],40
same,"Plant response rating, Ryegrass, Italian",[5]; [19],40
same,"Ryegrass, Italian plant response rating",[5]; [18],60
same,Kochia plant response rating,kochia (Bassia scoparia) [6]; 125 g ai/ha,0
same,"Plant response rating, Kochia",kochia (Bassia scoparia) [6]; 500 g ai/ha,60
same,Barnyardgrass plant response rating,[7]; 125 g ai/ha,90
same,"Plant response rating, Barnyardgrass",[7]; 500 g ai/ha,100
same,"Plant response rating, Corn",corn (Zea mays); [19],0
same,Corn plant response rating,corn (Zea mays); [18],50
same,"Foxtail, Giant plant response rating",[8]; 125 g ai/ha,100
same,"Plant response rating, Foxtail, Giant",[8]; 500 g ai/ha,100
same,"Plant response rating, Pigweed",[9]; [19],0
same,Pigweed plant response rating,[9]; [18],50
same,"Plant response rating, Foxtail, Giant",[10]; [19],70
same,"Foxtail, Giant plant response rating",[10]; [18],90
same,"Plant response rating, Blackgrass",[11]; [20],0
same,Blackgrass plant response rating,[11],30
same,"Plant response rating, Kochia",kochia (Bassia scoparia) [12]; [19],0
same,Kochia plant response rating,kochia (Bassia scoparia) [12]; [18],20
same,Pigweed plant response rating,[13]; 125 g ai/ha,30
same,"Plant response rating, Pigweed",[13]; 500 g ai/ha,90
same,"Plant response rating, Barnyardgrass",[14]; [20],40
same,Barnyardgrass plant response rating,[14],70
same,Ragweed plant response rating,[15]; 125 g ai/ha,80
same,"Plant response rating, Ragweed",[15]; 500 g ai/ha,90
COC1CCN(C(=O)c2cc(NS(=O)(=O)C(F)(F)F)c(C)cc2C)CC1 [Compound 19],"Plant response rating, Ryegrass, Italian",[1]; 1000 g ai/ha,90
same,"Plant response rating, Wheat",[2]; [21],50
same,"Plant response rating, Galium",[3]; [21],40
same,"Plant response rating, Ragweed",[4]; [21],80
same,"Plant response rating, Ryegrass, Italian",[5]; [21],50
same,"Plant response rating, Kochia",kochia (Bassia scoparia) [6]; 1000 g ai/ha,90
same,"Plant response rating, Barnyardgrass",[7]; 1000 g ai/ha,100
same,"Plant response rating, Corn",corn (Zea mays); [21],50
same,"Plant response rating, Foxtail, Giant",[8]; 1000 g ai/ha,100
same,"Plant response rating, Pigweed",[9]; [21],80
same,"Plant response rating, Foxtail, Giant",[10]; [21],90
same,"Plant response rating, Blackgrass",[11]; [22],60
same,"Plant response rating, Kochia",kochia (Bassia scoparia) [12]; [21],70
same,"Plant response rating, Pigweed",[13]; 1000 g ai/ha,100
same,"Plant response rating, Barnyardgrass",[14]; [22],80
same,"Plant response rating, Ragweed",[15]; 1000 g ai/ha,90
CCC(C)C(=O)OCN(c1cc(C2=NOC3(CCCC3)C2)c(C)cc1C)S(=O)(=O)C(F)(F)F (stereo not shown) [Compound 151],"Plant response rating, Ryegrass, Italian",[1]; [23],30
same,"Ryegrass, Italian plant response rating",[1]; 125 g ai/ha,90
same,"Plant response rating, Wheat",[2]; [24],0
same,"Plant response rating, Wheat",[2]; [17],50
same,"Plant response rating, Galium",[3]; [24],60
same,"Plant response rating, Galium",[3]; [17],70
same,"Plant response rating, Ragweed",[4]; [24],0
same,"Plant response rating, Ragweed",[4]; [17],40
same,"Plant response rating, Ryegrass, Italian",[5]; [24],0
same,"Plant response rating, Ryegrass, Italian",[5]; [17],0
same,"Plant response rating, Kochia",kochia (Bassia scoparia) [6]; [23],0
same,Kochia plant response rating,kochia (Bassia scoparia) [6]; 125 g ai/ha,0
same,"Plant response rating, Barnyardgrass",[7]; [23],0
same,Barnyardgrass plant response rating,[7]; 125 g ai/ha,90
same,"Plant response rating, Corn",corn (Zea mays); [24],0
same,"Plant response rating, Corn",corn (Zea mays); [17],10
same,"Plant response rating, Foxtail, Giant",[8]; [23],60
same,"Foxtail, Giant plant response rating",[8]; 125 g ai/ha,100
same,"Plant response rating, Pigweed",[9]; [24],30
same,"Plant response rating, Pigweed",[9]; [17],30
same,"Plant response rating, Foxtail, Giant",[10]; [24],0
same,"Plant response rating, Foxtail, Giant",[10]; [17],30
same,"Plant response rating, Blackgrass",[11]; 31 g ai/ha,0
same,"Plant response rating, Blackgrass",[11]; 125 g ai/ha,0
same,"Plant response rating, Kochia",kochia (Bassia scoparia) [12]; [24],10
same,"Plant response rating, Kochia",kochia (Bassia scoparia) [12]; [17],10
same,"Plant response rating, Pigweed",[13]; [23],50
same,Pigweed plant response rating,[13]; 125 g ai/ha,90
same,"Plant response rating, Barnyardgrass",[14]; 31 g ai/ha,0
same,"Plant response rating, Barnyardgrass",[14]; 125 g ai/ha,30
same,"Plant response rating, Ragweed",[15]; [23],0
same,Ragweed plant response rating,[15]; 125 g ai/ha,30
